Results on 14 molecules are retold here after ChEMBL document CHEMBL4219024, “A "Click Chemistry Platform" for the Rapid Synthesis of Bispecific Molecules for Inducing Protein Degradation” (J Med Chem, 2018).

For series [1], the target named is T1, Protein cereblon/Bromodomain-containing protein 4/DNA damage-binding protein 1 (Homo sapiens, UniProt O60885+Q96SW2+Q16531). Put plainly: Induction of CRBN/DDB1-mediated BRD4 protein degradation in human NCI-H661 cells assessed as drug level causing 50% cellular protein depletion incubated for 4 hrs by MSD assay.
Series [2] in a line: Solubility of the compound in PBS.
The nature of series [3]: Solubility of the compound in 0.01 N HCl.
In series [4] the target is T2, von Hippel-Lindau disease tumor suppressor/Bromodomain-containing protein 4 (Homo sapiens) (UniProt O60885+P40337). Put plainly: Induction of human His-tagged VHL(1 to 154)/GST-tagged BRD4 (49 to 170 residues) interaction assessed as VHL/BRD4/compound complex formation preincubated for 60 mins and measured after 60 mins by luminescence based Alphascreen proximity assay relative to control. In kind it is protein assay.
T2 sequence (P40337 whole entry, looked up, other chains not shown, the tested form may be a part): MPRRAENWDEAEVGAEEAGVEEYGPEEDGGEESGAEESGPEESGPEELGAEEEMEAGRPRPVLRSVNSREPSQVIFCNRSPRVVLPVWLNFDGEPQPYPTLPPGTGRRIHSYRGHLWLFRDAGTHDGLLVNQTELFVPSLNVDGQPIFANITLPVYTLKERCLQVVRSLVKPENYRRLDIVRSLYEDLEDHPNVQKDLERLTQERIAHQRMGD

Another series in a line: physchem. The note with it: fasted state simulated intestinal fluid.
The target in series [5] is T1, Protein cereblon/Bromodomain-containing protein 4/DNA damage-binding protein 1. As to the kind of experiment: Proteolysis targeting chimera activity in human NCI-H661 cells assessed as induction of CRBN/DDB1-mediated delivery of BRD4 for protein degradation at 1 uM after 4 hrs by Meso Scale Diagnostics assay. Type of series: cell-based.
The target is the same in series [6]. As to the kind of experiment: Proteolysis targeting chimera activity in human NCI-H661 cells assessed as induction of CRBN/DDB1-mediated delivery of BRD4 for protein degradation by proteasome at 1 uM after 4 hrs in presence of 10 uM of JQ-1 by Meso Scale Diagnostics assay. Type of series: cell-based.
The target is the same in series [7]. Put plainly: Proteolysis targeting chimera activity in human NCI-H661 cells assessed as induction of CRBN/DDB1-mediated delivery of BRD4 for protein degradation by proteasome at 1 uM after 4 hrs in presence of 10 uM thalidomide by Meso Scale Diagnostics assay. Type of series: cell-based.
The target is the same in series [8]. As to the kind of experiment: Proteolysis targeting chimera activity in human NCI-H661 cells assessed as induction of CRBN/DDB1-mediated delivery of BRD4 for protein degradation by proteasome at 1 uM after 4 hrs in presence of 20 uM MG132 by Meso Scale Diagnostics assay. In kind it is cell-based.
Series [9] shares this target. As to the kind of experiment: Proteolysis targeting chimera activity in human NCI-H661 cells assessed as induction of CRBN/DDB1-mediated delivery of BRD4 for protein degradation by proteasome at 10 uM after 4 hrs by Meso Scale Diagnostics assay. Type of series: cell-based.
The target in series [10] is T2, von Hippel-Lindau disease tumor suppressor/Bromodomain-containing protein 4 (Homo sapiens). As to the kind of experiment: Proteolysis targeting chimera activity in human NCI-H661 cells assessed as induction of VHL-mediated delivery of BRD4 for protein degradation by proteasome after 4 hrs in presence of 2-(prop-2-ynyloxy)ethanol by Meso Scale Diagnostics assay. Type of series: cell-based.

≈ marks a conversion by molar mass, not a printed value. Calls of active or inactive are those of the source. The calls are words filed in the database; no cut-off is given here. Where only a bound is given, the exact number is not on record here.

For the molecule `Cc1ncsc1-c1ccc(CNC(=O)[C@@H]2C[C@@H](O)CN2C(=O)[C@@H](NC(=O)COCCOCCOCc2cn(CCNC(=O)C[C@@H]3N=C(c4ccc(Cl)cc4)c4c(sc(C)c4C)-n4c(C)nnc43)nn2)C(C)(C)C)cc1`, in series [1], the DC50 stood at 240 nM. The solubility in [2] is 71 µM (≈ 76.9 µg/mL); in series [3] (0.01 N HCl) it was 293 µM (≈ 318 µg/mL); in the series “physchem”, 183 µM (≈ 198 µg/mL). In series [4], the %max was determined as 11%.

Regarding `Cc1sc2c(c1C)C(c1ccc(Cl)cc1)=N[C@@H](CC(=O)NCCn1cc(COCCOCCOCCOCCOc3cccc4c3C(=O)N(C3CCC(=O)NC3=O)C4=O)nn1)c1nnc(C)n1-2` (stereo partly specified), the DC50 in series [1] worked out at 200 nM. Moreover, the solubility in series [2] was 158 µM (≈ 151 µg/mL); in series [3] (0.01 N HCl), 317 µM (≈ 304 µg/mL); in the series “physchem” it was 273 µM (≈ 261 µg/mL). Also, the Activity in series [5] is more than 90%. Further, the result in series [6], in [7] and in [8] was inactive.

Consider `Cc1sc2c(c1C)C(c1ccc(Cl)cc1)=N[C@@H](CC(=O)NCCn1cc(COCCOCCOCCOc3cccc4c3C(=O)N(C3CCC(=O)NC3=O)C4=O)nn1)c1nnc(C)n1-2` (stereo partly specified), for which the solubility in [2] was 130 µM (≈ 119 µg/mL); in series [3] (0.01 N HCl), 310 µM (≈ 283 µg/mL); in the series “physchem” it was 216 µM (≈ 197 µg/mL).

For the molecule `Cc1ncsc1-c1ccc(CNC(=O)[C@@H]2C[C@@H](O)CN2C(=O)[C@@H](NC(=O)COCCOCCOCCOCCOCc2cn(CCNC(=O)C[C@@H]3N=C(c4ccc(Cl)cc4)c4c(sc(C)c4C)-n4c(C)nnc43)nn2)C(C)(C)C)cc1`, the DC50 in series [1] came out at 630 nM. Besides, the solubility was 206 µM (≈ 241 µg/mL) in series [2], 500 µM (≈ 586 µg/mL) in series [3] (0.01 N HCl) and 313 µM (≈ 367 µg/mL) in “physchem”. The %max in [4] is 3%.

For the molecule `Cc1ncsc1-c1ccc(CNC(=O)[C@H]2CN(C(=O)[C@@H](NC(=O)COCc3cn(CCNC(=O)C[C@@H]4N=C(c5ccc(Cl)cc5)c5c(sc(C)c5C)-n5c(C)nnc54)nn3)C(C)(C)C)C[C@@H]2O)cc1`, the DC50 in series [1] is 59 nM. Moreover, the solubility in series [3] (0.01 N HCl) is 314 µM (≈ 313 µg/mL); in “physchem”, 90 µM (≈ 89.6 µg/mL). For the same molecule, in series [4], the %max turned out to be 46%.

As to `C#CCOCCOCCOCCOCCOc1cccc2c1C(=O)N(C1CCC(=O)NC1=O)C2=O` (stereo unspecified), the outcome in series [9] was inactive.

For `Cc1sc2c(c1C)C(c1ccc(Cl)cc1)=N[C@@H](CC(=O)NCCn1cc(COCCOc3cccc4c3C(=O)N(C3CCC(=O)NC3=O)C4=O)nn1)c1nnc(C)n1-2` (stereo partly specified), the half-maximal degradation concentration (DC50) in [1] is more than 5000 nM. Moreover, the solubility in series [2] is 111 µM (≈ 91.6 µg/mL); in series [3] (0.01 N HCl), 242 µM (≈ 200 µg/mL); in the series “physchem”, 247 µM (≈ 204 µg/mL).

As to `Cc1sc2c(c1C)C(c1ccc(Cl)cc1)=N[C@@H](CC(=O)NCCn1cc(COc3cccc4c3C(=O)N(C3CCC(=O)NC3=O)C4=O)nn1)c1nnc(C)n1-2` (stereo partly specified), the figures for the solubility (in series [2]; in [3] (0.01 N HCl); in “physchem”) were 31 µM (≈ 24.2 µg/mL), 171 µM (≈ 134 µg/mL) and 191 µM (≈ 149 µg/mL), respectively.

For `Cc1ncsc1-c1ccc(CNC(=O)[C@@H]2C[C@@H](O)CN2C(=O)[C@@H](NC(=O)COCCOCc2cn(CCNC(=O)C[C@@H]3N=C(c4ccc(Cl)cc4)c4c(sc(C)c4C)-n4c(C)nnc43)nn2)C(C)(C)C)cc1`, the DC50 in series [1] amounted to 83 nM. Also, the values for the solubility (in series [2]; in series [3] (0.01 N HCl); in “physchem”) were 38 µM (≈ 39.5 µg/mL), 343 µM (≈ 357 µg/mL) and 178 µM (≈ 185 µg/mL), respectively. In series [10], the result was inactive. Further, the %max in series [4] was 22%.

For `Cc1sc2c(c1C)C(c1ccc(Cl)cc1)=N[C@@H](CC(=O)NCCn1cc(COCCOCCOc3cccc4c3C(=O)N(C3CCC(=O)NC3=O)C4=O)nn1)c1nnc(C)n1-2` (stereo partly specified), in [1], the half-maximal degradation concentration (DC50) is more than 5000 nM. Besides, the solubility is 76 µM (≈ 66.1 µg/mL) in series [2], 237 µM (≈ 206 µg/mL) in series [3] (0.01 N HCl) and 237 µM (≈ 206 µg/mL) in the series “physchem”.

Take `Cc1sc2c(c1C)C(c1ccc(Cl)cc1)=N[C@@H](CC(=O)NCCCCNC(=O)COc1cccc3c1C(=O)N(C1CCC(=O)NC1=O)C3=O)c1nnc(C)n1-2` (stereo partly specified): the solubility was 60 µM (≈ 47.1 µg/mL) in series [2], 171 µM (≈ 134 µg/mL) in series [3] (0.01 N HCl) and 97 µM (≈ 76.2 µg/mL) in the series “physchem”.

Turning to `Cc1sc2c(c1C)C(c1ccc(Cl)cc1)=N[C@@H](CC(=O)NCCN=[N+]=[N-])c1nnc(C)n1-2`, the result in series [9] was inactive.

For the molecule `Cc1ncsc1-c1ccc(CNC(=O)[C@@H]2C[C@@H](O)CN2C(=O)[C@@H](NC(=O)COCCOCCOCCNC(=O)C[C@@H]2N=C(c3ccc(Cl)cc3)c3c(sc(C)c3C)-n3c(C)nnc32)C(C)(C)C)cc1`, the results for the solubility (in series [2]; in [3] (buffer); in the series “physchem”) were 97 µM (≈ 97.3 µg/mL), 450 µM (≈ 451 µg/mL) and 164 µM (≈ 164 µg/mL), respectively. For the same molecule, the %max in [4] was found to be 100%.

As for `Cc1ncsc1-c1ccc(CNC(=O)[C@@H]2C[C@@H](O)CN2C(=O)[C@@H](NC(=O)COCCOCCOCCOCc2cn(CCNC(=O)C[C@@H]3N=C(c4ccc(Cl)cc4)c4c(sc(C)c4C)-n4c(C)nnc43)nn2)C(C)(C)C)cc1`, the DC50 in [1] was 460 nM. Also, the solubility in [2] is 168 µM (≈ 189 µg/mL); in [3] (0.01 N HCl), 394 µM (≈ 444 µg/mL); in the series “physchem”, 294 µM (≈ 332 µg/mL). For the same molecule, the %max in series [4] turned out to be 15%.
